Measured values from ChEMBL document CHEMBL5346955, “Discovery of HPG1860, a Structurally Novel Nonbile Acid FXR Agonist Currently in Clinical Development for the Treatment of Nonalcoholic Steatohepatitis” (J Med Chem, 2023).
Activity calls are given as the source filed them. The rule behind the calls is not given here.

How the values were obtained:
[1] = molecular target: T1, Bile acid receptor (Homo sapiens, UniProt Q96RI1); assay: Agonist activity at human GAL4-FXR-LBD expressed in HEK293T cells assessed as transcriptional activity measured after 16 to 20 hrs by luciferase reporter gene assay; type: cell-based
T1 sequence (Q96RI1 whole entry): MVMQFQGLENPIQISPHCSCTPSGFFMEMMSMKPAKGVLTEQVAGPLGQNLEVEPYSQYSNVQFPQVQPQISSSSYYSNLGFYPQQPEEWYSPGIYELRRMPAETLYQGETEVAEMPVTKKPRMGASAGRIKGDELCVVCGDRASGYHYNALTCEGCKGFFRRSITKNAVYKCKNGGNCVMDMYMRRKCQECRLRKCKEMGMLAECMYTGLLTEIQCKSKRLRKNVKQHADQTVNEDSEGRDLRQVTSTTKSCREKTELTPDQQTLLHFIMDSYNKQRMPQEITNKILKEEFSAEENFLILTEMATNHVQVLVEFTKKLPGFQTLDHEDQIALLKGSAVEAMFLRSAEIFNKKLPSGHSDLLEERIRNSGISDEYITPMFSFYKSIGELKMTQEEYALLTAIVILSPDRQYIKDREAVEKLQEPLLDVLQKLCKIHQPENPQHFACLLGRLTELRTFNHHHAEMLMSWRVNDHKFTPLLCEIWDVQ

[2] = molecular target: T1, Bile acid receptor; assay: Agonist activity at GST-tagged human FXR-LBD in presence of luorescein-SRC2-2 coactivator peptide by TR-FRET assay
[3] = tested on: Mus musculus; assay: Anti-nonalcoholic steatohepatitis activity against ccl4-induced C57BL/6J mouse model assessed as decrease in ALT level in liver at 30 mg/kg, po qd treated for 28 days; type: functional, organism-based; conditions: time 28.0 day
[4] = tested on: Mus musculus; assay: Anti-nonalcoholic steatohepatitis activity against ccl4-induced C57BL/6J mouse model assessed as reduction total cholesterol in serum at 30 mg/kg, po qd treated for 28 days; type: functional, organism-based; conditions: time 28.0 day
[5] = tested on: Mus musculus; assay: Anti-nonalcoholic steatohepatitis activity against ccl4-induced C57BL/6J mouse model assessed as decrease in AST level in liver at 30 mg/kg, po qd treated for 28 days; type: functional, organism-based; conditions: time 28.0 day
[6] = tested on: Mus musculus; assay: Anti-nonalcoholic steatohepatitis activity against ccl4-induced C57BL/6J mouse model assessed as improvement in fibrosis at 30 mg/kg, po qd treated for 28 days; type: functional, organism-based; conditions: time 28.0 day
[7] = Toxicity in C57BL/6J mouse assessed as change in body weight at 30 mg/kg, po qd; type: organism-based; conditions: in vivo
[8] = tested on: Mus musculus; assay: Anti-nonalcoholic steatohepatitis activity against ccl4-induced C57BL/6J mouse model assessed as clearance of liver steatosis at 30 mg/kg, po qd treated for 28 days; type: functional, organism-based; conditions: time 28.0 day
[9] = tested on: Mus musculus; assay: Anti-nonalcoholic steatohepatitis activity against ccl4-induced C57BL/6J mouse model assessed as improvement in liver inflammation at 30 mg/kg, po qd treated for 28 days; type: functional, organism-based; conditions: time 28.0 day

Structure (SMILES) | EC50 [1] [µM] | EC50 [2] [µM] | Activity [3] | Activity [4] | Activity [5] | Activity [6] | Activity [7] | Activity [8] | Activity [9]
COc1cc(C(=O)O)cc2sc(N3CCC(Cc4c(-c5c(Cl)cccc5Cl)noc4C(C)C)CC3)nc12 | 0.194 | 0.028 | – | – | – | – | – | – | –
CC[C@H]1[C@@H](O)C2[C@@H]3CC[C@H]([C@H](C)CCC(=O)O)[C@@]3(C)CC[C@@H]2[C@@]2(C)CC[C@@H](O)C[C@@H]12 (some centres undefined) | – | – | inactive | Active | inactive | Active | Non-Toxic | Active | inactive
